Where two headings read alike, the source gives them in different places.

In US12060349B2, “Glucosylceramide synthase inhibitors” (Genzyme Corporation, priority 2012, dated 2024) one finds IC50 data, which are given here for 17 compounds.

Assay [1] addresses T1, glucosylceramide synthase (Homo sapiens, UniProt Q16739).
T1 construct: Microsomes were isolated from A375 human melanoma cells; endogenous in cells; host or cells: A375 human melanoma cells (microsomal fraction, 100,000 g pellet)
T1 sequence (Q16739 1-394): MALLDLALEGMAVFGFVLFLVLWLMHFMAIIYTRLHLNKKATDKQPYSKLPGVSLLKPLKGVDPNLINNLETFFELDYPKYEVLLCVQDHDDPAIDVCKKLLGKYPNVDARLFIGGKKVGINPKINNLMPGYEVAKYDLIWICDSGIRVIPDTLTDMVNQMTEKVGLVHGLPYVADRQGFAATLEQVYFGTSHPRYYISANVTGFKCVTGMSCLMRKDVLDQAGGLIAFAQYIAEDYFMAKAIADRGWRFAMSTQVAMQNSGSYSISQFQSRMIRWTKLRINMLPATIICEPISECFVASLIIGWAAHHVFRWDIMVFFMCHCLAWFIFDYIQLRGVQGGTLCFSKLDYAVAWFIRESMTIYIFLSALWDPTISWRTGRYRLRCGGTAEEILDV
Briefly: microsomal assay measuring conversion of ceramide to glucosylceramide by HPLC (GCS IC50). In kind it is biochemical. The note with it: concentration causing 50% inhibition of glucosylceramide synthase activity. In a few lines: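 Microsomal preparation assayed for glucosylceramide synthase by direct HPLC measurement of ceramide conversion to glucosylceramide. GCS IC50 is the compound concentration giving 50% inhibition of enzyme activity.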

Assay [2] relates to GM3 expression on the cell surface, B16 mouse melanoma cells. Briefly: cell based phenotypic assay, cell surface GM3 by antibody mediated immunofluorescence, B16 (GM3 B16 IC50). The following applies: 50% inhibition of GM3 expression on the cell surface. In outline:
(§1)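 Both lines undergo the phenotypic GM3 assay, and viability is recorded from that same cell-based run.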

The test system of assay [3] is GM3 expression on the cell surface, C32 human melanoma cells. Briefly: cell based phenotypic assay, cell surface GM3 by antibody mediated immunofluorescence, C32 (GM3 C32 IC50). The note with it: 50% inhibition of GM3 expression on the cell surface. In a few lines:
as §1

The subject of a further assay is B16 mouse melanoma cells. Briefly: cell viability in the B16 cell-based assay (Viability, B16 IC50). In a few lines: (§2)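 Two melanoma lines, mouse B16 and human C32, were treated and surface GM3 quantified by antibody immunofluorescence for IC50. A parallel viability readout gives the concentration killing 50% of cells, with values over 10 indicating no cell death.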

Another assay concerns C32 human melanoma cells. Briefly: cell viability in the C32 cell-based assay (Viability, C32 IC50). The following applies: concentration causing 50% cell death, values greater than 10 represent a lack of cell death. In a few lines:
as §2

The mark [4] stands for this setting: Mus musculus, B16 mouse melanoma cells, read-out: GM3 B16 IC50.
The mark [5] stands for this setting: Homo sapiens, C32 human melanoma cells, read-out: GM3 C32 IC50.
[6] abbreviates: Mus musculus, B16, B16 cells, concentration causing 50% cell death, values greater than 10 represent a lack of cell death, read-out: Viability, B16 IC50.
The mark [7] stands for this setting: Homo sapiens, C32, C32 cells, read-out: Viability, C32 IC50.
[8] abbreviates: Mus musculus, B16, read-out: Viability, B16 IC50.
Where [9] appears, read: read-out: Viability, C32 IC50, C32 cells.
Where [10] appears, read: B16 mouse melanoma cells, read-out: GM3 B16 IC50.
Setting [11] is: C32 human melanoma cells, read-out: GM3 C32 IC50.
The mark [12] stands for this setting: B16 cells, concentration causing 50% cell death, values greater than 10 represent a lack of cell death, read-out: Viability, B16 IC50.
[13] abbreviates: C32 cells, read-out: Viability, C32 IC50.
Where [14] appears, read: Mus musculus, read-out: GM3 B16 IC50, B16 mouse melanoma cells.
[15] abbreviates: Homo sapiens, read-out: GM3 C32 IC50, C32 human melanoma cells.

As usually defined, the IC50 is the point on the concentration scale where inhibition reaches its midpoint. For `CC(C)(NC(=O)NC1(C)CN2CCC1CC2)c1ccc(-c2ccc(S(=O)(=O)CC3CC3)cc2)cc1` (stereo not shown) [Example 240, 1-(2-(4′-((Cyclopropylmethyl)sulfonyl)-[1,1′-biphenyl]-4-yl)propan-2-yl)-3-(3-methylquinuclidin-3-yl)urea], the IC50 in assay [1] is 13.3 nM; in assay [2] (setting [4]) it was 86.5 nM; in assay [3] (setting [5]) it was 5.97 nM; in the assay on B16 mouse melanoma cells (setting [6]), at least 10000 nM; in the assay on C32 human melanoma cells (setting [7]) it was 1000 nM.
Take `CN(C)C(=O)c1ccc(Oc2ccc(C(C)(C)NC(=O)OC3CN4CCC3CC4)cc2)cc1` (stereo not shown) [Example 283, Quinuclidin-3-yl 2-(4-(4-(dimethylcarbamoyl)phenoxy)phenyl)propan-2-ylcarbamate]: the IC50 was 606 nM in assay [1]; 1030 nM in assay [2] (read-out: GM3 B16 IC50, B16 mouse melanoma cells); 114 nM in assay [3] (read-out: GM3 C32 IC50, C32 human melanoma cells); at least 10000 nM in the assay with B16 mouse melanoma cells (setting [8]); at least 10000 nM with C32 human melanoma cells (setting [9]).
Regarding `C[C@@H]1CN(C(=O)NC2(C)CCN3CCC2CC3)CCN1c1nccc(-c2ccccc2)n1` (single isomer, unassigned) [Example 137], the 50% inhibitory concentration (IC50) in assay [1] amounted to 3.2 nM; in assay [2] (setting [10]), 50.1 nM; in assay [3] (setting [11]), 0.198 nM; in the assay on B16 mouse melanoma cells (setting [12]), 5720 nM; in the assay with C32 human melanoma cells (setting [13]), 1000 nM.
For `CC(C)(NC(=O)NC1(C)CCN2CCC1CC2)c1ccc(-c2ccc(N3CCOCC3)cc2)cc1` (stereo not shown) [Example 233, 1-(4-Methyl-1-azabicyclo[3.2.2]nonan-4-yl)-3-(2-(4′-morpholino-[1,1′-biphenyl]-4-yl)propan-2-yl)urea], the IC50 in assay [1] worked out at 5.68 nM; in assay [2] (setting [4]) it was 5.51 nM; in assay [3] (setting [5]) it was 0.726 nM; in the assay on B16 mouse melanoma cells (setting [6]), 1000 nM; with C32 human melanoma cells (setting [7]), 1000 nM.
In the case of “3-Ethyl-N-(4-methyl-1-azabicyclo[3.2.2]nonan-4-yl)-4-(4-phenylpyrimidin-2-yl)piperazine-1-carboxamide [Example 143]”, the half-maximal inhibitory concentration (IC50) was 1.79 nM in assay [1]; 52.3 nM in assay [2] (setting [10]); 0.304 nM in assay [3] (setting [11]); 3110 nM in the assay with B16 mouse melanoma cells (setting [12]); 3160 nM in the assay with C32 human melanoma cells (setting [13]).
`CC1(NC(=O)C2CCN(c3ccnc(-c4ccc(F)cc4)n3)CC2)CCN2CCC1CC2` (stereo not shown) [Example 51, 1-(2-(4-Fluorophenyl)pyrimidin-4-yl)-N-(4-methyl-1-azabicyclo[3.2.2]nonan-4-yl)piperidine-4-carboxamide]: the concentration for half-maximal inhibition (IC50) in assay [1] stood at 46.6 nM; in assay [2] (setting [4]) it was 335 nM; in assay [3] (setting [5]), 3.88 nM; in the assay on B16 mouse melanoma cells (setting [6]) it was 8260 nM; in the assay on C32 human melanoma cells (setting [7]), 3160 nM.
Take `CC(C)(NC(=O)NC1(C)CCN2CCC1CC2)c1ccc(Oc2ccc(C(=O)N3CCOCC3)cc2)cc1` (stereo not shown) [Example 281, 1-(4-Methyl-1-azabicyclo[3.2.2]nonan-4-yl)-3-(2-(4-(4-(morpholine-4-carbonyl)phenoxy)phenyl)propan-2-yl)urea]: the IC50 in assay [1] was 31.6 nM; in assay [2] (setting [4]), 440 nM; in assay [3] (setting [5]) it was 7.79 nM; with B16 mouse melanoma cells (setting [6]), at least 10000 nM; with C32 human melanoma cells (setting [7]), 1000 nM.
For the compound `CN(C)C(=O)c1ccc(Oc2ccc(C(C)(C)NC(=O)NC3(C)CCN4CCC3CC4)cc2)cc1` (stereo not shown) [Example 285, N,N-Dimethyl-4-(4-(2-(3-(4-methyl-1-azabicyclo[3.2.2]nonan-4-yl)ureido)propan-2-yl)phenoxy)benzamide], the IC50 in assay [1] was 16.3 nM; in assay [2] (setting [10]), 725 nM; in assay [3] (setting [11]) it was 6.48 nM; with B16 mouse melanoma cells (setting [6]), at least 10000 nM; in the assay on C32 human melanoma cells (setting [13]), 1000 nM.
On to `CCC1CN(C(=O)NC2(C)CCN3CCC2CC3)CCN1c1nccc(-c2ccccc2)n1` (stereo not shown) [Example 142, 3-Ethyl-N-(4-methyl-1-azabicyclo[3.2.2]nonan-4-yl)-4-(4-phenylpyrimidin-2-yl)piperazine-1-carboxamide], for which the IC50 in assay [1] is 7.69 nM; in assay [2] (setting [4]), 100 nM; in assay [3] (setting [5]), 0.861 nM; in the assay on B16 mouse melanoma cells (setting [6]) it was 5340 nM; with C32 human melanoma cells (setting [7]), 9210 nM.
As to `C[C@H]1CN(C(=O)NC2(C)CCN3CCC2CC3)CCN1c1nccc(-c2ccccc2)n1` (single isomer, unassigned) [Example 139], the IC50 in assay [1] was 17.3 nM; in assay [2] (setting [10]), 67 nM; in assay [3] (setting [11]), 1.37 nM; in the assay on B16 mouse melanoma cells (setting [6]) it was 5250 nM; with C32 human melanoma cells (setting [7]), 3160 nM.
Turning to `O=C(NC1(c2ccc(-c3ccc(COCc4cncnc4)cc3)cc2)CC1)OC1CN2CCC1CC2` (stereo not shown) [Example 219, Quinuclidin-3-yl (1-(4′-((pyrimidin-5-ylmethoxy)methyl)-[1,1′-biphenyl]-4-yl)cyclopropyl)carbamate], the IC50 is 46.6 nM in assay [1]; 118 nM in assay [2] (setting [14]); 20.9 nM in assay [3] (setting [15]); at least 10000 nM in the assay on B16 mouse melanoma cells (setting [8]); at least 10000 nM in the assay on C32 human melanoma cells (Homo sapiens, C32, read-out: Viability, C32 IC50, C32 cells).
On to `CC1(NC(=O)C2CN(c3ncc(F)c(-c4ccc(F)cc4)n3)C2)CCN2CCC1CC2` (stereo not shown) [Example 112, 1-(5-Fluoro-4-(4-fluorophenyl)pyrimidin-2-yl)-N-(4-methyl-1-azabicyclo[3.2.2]nonan-4-yl)azetidine-3-carboxamide], for which the half-inhibitory concentration (IC50) in assay [1] is 7.37 nM; in assay [2] (setting [4]), 122 nM; in assay [3] (setting [5]), 0.238 nM; with B16 mouse melanoma cells (setting [6]) it was 7240 nM; with C32 human melanoma cells (setting [7]), 316 nM.
For `CC1(NC(=O)C2CCN(c3ncnc(-c4ccc(F)cc4)n3)CC2)CCN2CCC1CC2` (stereo not shown) [Example 50, 1-(4-(4-Fluorophenyl)-1,3,5-triazin-2-yl)-N-(4-methyl-1-azabicyclo[3.2.2]nonan-4-yl)piperidine-4-carboxamide], in that order: 32.5 nM, 162 nM, 0.708 nM, at least 10000 nM and 3160 nM.
Taken in the same sequence, the figures for `COCCCOc1ccc(-c2cccc(C(C)(C)NC(=O)N3CCN4CCC3CC4)c2)nn1` [Example 314, N-(2-(3-(6-(3-Methoxypropoxy)pyridazin-3-yl)phenyl)propan-2-yl)-1,4-diazabicyclo[3.2.2]nonane-4-carboxamide] were 2630 nM, 4910 nM, 118 nM, at least 10000 nM and at least 10000 nM.
For the compound `O=C(OC1CN2CCC1CC2)N1CCN(c2ccc(-c3ccccc3)cc2)CC1` (stereo not shown) [Example 6, Quinuclidin-3-yl 4-([1,1′-biphenyl]-4-yl)piperazine-1-carboxylate], the IC50 amounted to 5600 nM in assay [1]; 3520 nM in assay [2] (setting [14]); 1000 nM in assay [3] (setting [15]); 5210 nM in the assay on B16 mouse melanoma cells (read-out: Viability, B16 IC50, B16 cells, concentration causing 50% cell death, values greater than 10 represent a lack of cell death); 4120 nM in the assay with C32 human melanoma cells (setting [9]).
With `COCCOCc1ccc(-c2nc(N3CCC(F)(C(=O)NC4(C)CCN5CCC4CC5)CC3)ncc2F)cc1` (single isomer, unassigned) [Example 78, 4-Fluoro-1-(5-fluoro-4-(4-((2-methoxyethoxy)methyl)phenyl)pyrimidin-2-yl)-N-(4-methyl-1-azabicyclo[3.2.2]nonan-4-yl)piperidine-4-carboxamide], the IC50 in assay [1] stood at 64.7 nM; in assay [2] (setting [10]) it was 3120 nM; in assay [3] (setting [11]), 4.87 nM; in the assay on B16 mouse melanoma cells (setting [6]), 3540 nM; with C32 human melanoma cells (setting [13]) it was 1000 nM.
On to `CC(C)(NC(=O)OC1CCN2CCC1CC2)c1ccc(-c2ccc(C(=O)N3CCOCC3)cc2)cc1` (stereo not shown) [Example 266, 1-Azabicyclo[3.2.2]nonan-4-yl 2-(4′-(morpholine-4-carbonyl)biphenyl-4-yl)propan-2-ylcarbamate], for which the IC50 is 399 nM in assay [1]; 284 nM in assay [2] (setting [4]); 22.7 nM in assay [3] (setting [5]); at least 10000 nM with B16 mouse melanoma cells (setting [6]); 1000 nM with C32 human melanoma cells (setting [7]).
